We go through 116 compounds from the CATMoS acute toxicity set (Mansouri et al. 2021).

Structures are written as SMILES. Values joined by “and” are separate entries in the source; they are usually repeats but may differ in a detail not shown here. Identical values can stand only once.

This data set in a line: rat acute oral toxicity. Particulars: in vivo. An excerpt: […]The data set underlying the modeling effort for this project was initially compiled by NICEATM and U.S. EPA’s CCTE. Briefly, LD50 data were collected from rat acute oral systemic toxicity tests, including limit tests, ranges/confidence intervals, and discrete LD50 values. The full data set included 21,200 LD50 entries for 15,688 substances. […] Data were reviewed to ensure that LD50 values with obvious errors in the extracted data such as unit conversion errors (e.g., comma and decimal separator misplacements) were either fixed or removed. After this review, 16,209 LD50 values remained. Many of the chemicals represented had multiple LD50 entries, requiring that a single representative value per Chemical Abstracts Service Registry Number (CASRN) identifier be defined to facilitate modeling efforts. Based on ATWG feedback and to define the representative LD50 as a protective value while accounting for the distribution across multiple LD50s, the median of the lowest quartile was computed using only discrete LD50 values (omitting limit test data and range and confidence interval data). A detailed summary of the data compilation is available online on the NICEATM webpage dedicated to the collaborative modeling project (NTP 2020).
[…][…] For categorical designations, limit test and range/confidence interval LD50 data were integrated wherever possible. As such, the number of chemicals with end point values/calls varies across the modeling end points (Table 3) based on whether chemicals had representative LD50 values and/or other data. If a chemical had both, the representative value was used to determine categorical calls rather than limit test data. Some data were useable only for certain end points and categories depending on the thresholds. For example, ranges that spanned multiple hazard categories were considered only for the binary (very toxic/nontoxic) end points and omitted from rendering a determination for hazard category assignment.
[…]The final data set comprising 11,992 chemicals was split into training and evaluation sets […], respectively. This process was performed semirandomly by ordering chemicals based on the five end points (categorical and continuous LD50 values) and partitioning every fourth record into the evaluation set accordingly. This approach was taken to ensure an equivalent distribution of the LD50 values and the different hazard categories between the training and the evaluation sets without supervised sampling of the chemicals based on structures (Figure 1A). The sources of the chemical structures were also kept equivalent between the two sets, with chemical structures obtained from DSSTox, being the highest quality, representing over 75% of each set (Figure 1B).
Compound `COC(=O)CS` yielded an LD50 of 84 mg/kg.
The figure for `C=C(C)C(=O)OCCN(C)C` is 455 mg/kg; for `N[C@@H](Cc1ccc(N(CCCl)CCCl)cc1)C(=O)O` it is 11.2 mg/kg; for `CC(C)(C)C(O)(CCc1ccc(Cl)cc1)Cn1cncn1` (stereo unspecified) it is 1700 mg/kg.
Consider `COCCOCCOC`, for which the median lethal dose (LD50) stood at 4760 mg/kg. This LD50 lies about 2.8-fold higher than the previous one.
The figure for `CC1=CC(=O)CC(C)(C)C1` is 1500 mg/kg; for `CCNc1nc(Cl)nc(NC(C)C)n1` it is 1870 mg/kg; for `CCOC(=O)C(SP(=S)(OC)OC)c1ccccc1` (stereo unspecified) it is 71 mg/kg.
With `CNC(=O)N(C)c1nnc(C(C)(C)C)s1` the figure was 640 mg/kg.
Consider `C=CC(C)(CCC=C(C)C)OC(C)=O` (stereo unspecified), for which the LD50 is 13900 mg/kg. This LD50 lies about 22-fold higher than the previous one.
With `COc1ccc(O)c(C(C)(C)C)c1` the figure was 2910 mg/kg.
Regarding `O=[N+]([O-])c1cc(Cl)ccc1Cl`, the LD50 was 1000 mg/kg. Compared with the last compound, the LD50 is about 2.9-fold lower.
The figure for `COCC(C)OC(C)=O` (stereo unspecified) is 5160 mg/kg; for `C1CNCCN1` it is 1980 mg/kg.
The figure for `CC(C)(C)CC(C)(C)c1ccc(O)cc1` is 4040 mg/kg.
Regarding `CC(C)(C)c1ccc(O)c(O)c1`, the LD50 was 815 mg/kg.
Turning to `CC1(C)CC(O)CC(C)(C)N1[O]`, the LD50 is 953 mg/kg.
With `N=C(N)N` the figure was 475 mg/kg and 730 mg/kg; with `CSc1nc(NC(C)C)nc(NC(C)C)n1`, 1940 mg/kg; with `ClCC(Cl)Cl`, 836 mg/kg.
In the case of `COP(=S)(OC)Oc1ccc([N+](=O)[O-])cc1Cl`, the LD50 turned out to be 284 mg/kg. Compared with the last compound, the LD50 is about 2.9-fold lower.
The figure for `CC(C)N(C(=O)CCl)c1ccccc1` is 710 mg/kg.
The figure for `O=C(OCCOCCOC(=O)c1ccccc1)c1ccccc1` is 2830 mg/kg; for `CC(C)OC(=O)Nc1cccc(Cl)c1` it is 1200 mg/kg.
The figure for `CCN(CC)C(=O)N1CCN(C)CC1` is 1380 mg/kg; for `O=C(O)c1cccc(C(=O)O)c1` it is 10400 mg/kg; for `CN(C)C(=O)Nc1cccc(C(F)(F)F)c1` it is 1450 mg/kg.
In the case of `Cc1cccc([N+](=O)[O-])c1C`, the LD50 was 2110 mg/kg.
With `COP(=S)(OC)Oc1ccc(S(=O)(=O)N(C)C)cc1` the figure was 28 mg/kg; with `CCOP(=O)(NC(C)C)Oc1ccc(SC)c(C)c1` (stereo unspecified), 2.7 mg/kg.
The figure for `COC(=O)CC(C)=O` is 2580 mg/kg; for `O=C(O)C1CCC(C(=O)O)CC1` (stereo unspecified) it is 1900 mg/kg; for `C=CC(=O)OCC(O)COCCCCOCC(O)COC(=O)C=C` (stereo unspecified) it is 200 mg/kg.
Turning to `C=C(C)[C@@H]1CC=C(C)C(=O)C1`, the LD50 was 4900 mg/kg. This LD50 lies about 24-fold higher than the previous one.
On to `CN=C(O)Oc1cccc(C)c1`, for which the LD50 came to 268 mg/kg. This LD50 is about 18-fold lower than that of the compound before.
In turn, `OC[C@@H](O)[C@@H](O)CO` had an LD50 of 13100 mg/kg.
`CCNCC`: the LD50 came out at 540 mg/kg.
The compound `CC(Cc1ccc(C(C)(C)C)cc1)CN1CC(C)OC(C)C1` (stereo unspecified) yielded an LD50 of 1670 mg/kg. Against the preceding compound, the LD50 is about 3.1-fold higher.
The figure for `CCOc1ccc(CCCCCCC(C)C)cc1` is 5600 mg/kg.
With `Cc1ccc([N+](=O)[O-])cc1` the figure was 2050 mg/kg; with `CC(C)N`, 111 mg/kg.
Compound `C=CC[N+](C)(C)CC=C` returned an LD50 of 2520 mg/kg.
For the compound `O=P(Oc1ccccc1)(Oc1ccccc1)Oc1ccccc1`, the LD50 came out at 3500 mg/kg.
The compound `C[C@H]1OC(=O)[C@@H](C)OC1=O` had an LD50 of 3540 mg/kg.
With `CCCCCCCCCCCCCC[N+](C)(C)CCCCCCCCCCCCCC` the figure was 930 mg/kg; with `O=Cc1ccncc1`, 2170 mg/kg.
The figure for `CCCCC(C=O)CC` (stereo unspecified) is 2600 mg/kg; for `Clc1cccc(Cl)c1Cl` it is 756 mg/kg.
The figure for `O=S1(=O)CCCC1` is 1970 mg/kg; for `CCSC(=O)N(CC)C1CCCCC1` it is 1680 mg/kg; for `N#C[N-2]` it is 158 mg/kg.
For `N#Cc1ccccc1O`, the LD50 was 300 mg/kg.
The figure for `OCCOCCOCCOCCO` is 32700 mg/kg; for `Clc1cccc(Cl)c1` it is 580 mg/kg.
Compound `ClC(Cl)(Cl)Cl` displayed an LD50 of 2350 mg/kg.
With `CCOCCOCCOCC` the figure was 4970 mg/kg.
With `CC(C)N(C(=O)SCC(Cl)=C(Cl)Cl)C(C)C` the figure was 200 mg/kg.
The figure for `Nc1c(Cl)c(Cl)nc(C(=O)O)c1Cl` is 686 mg/kg.
In turn, `c1ccc(-c2ccccn2)nc1` came in with an LD50 of 100 mg/kg.
In turn, `ClC1=C(Cl)[C@]2(Cl)[C@@H]3[C@@H]4C[C@@H]([C@H]5O[C@@H]45)[C@@H]3[C@@]1(Cl)C2(Cl)Cl` (single isomer, unassigned) showed an LD50 of 24 mg/kg.
The figure for `CC1(C)C(C=C(Cl)Cl)C1C(=O)OCc1cccc(Oc2ccccc2)c1` (stereo unspecified) is 406 mg/kg.
The compound `CCCC1COC(Cn2cncn2)(c2ccc(Cl)cc2Cl)O1` (stereo unspecified) gave an LD50 of 1500 mg/kg.
With `CCCCO` the figure was 790 mg/kg; with `CC[Si](Cl)(Cl)CC`, 600 mg/kg; with `C/C=C(/C)C(=O)O[C@H]1CCN2CC=C(COC(=O)[C@](O)([C@H](C)OC)C(C)(C)O)[C@H]12`, 110 mg/kg.
The figure for `N#CCCCCCCC#N` is 238 mg/kg.
In the case of `C[n+]1ccc(-c2cc[n+](C)cc2)cc1`, the LD50 is 97.5 mg/kg and 106 mg/kg.
The figure for `NC(=O)c1ccccc1O` is 980 mg/kg; for `CCOP(=O)(OCC)OCC` it is 1160 mg/kg.
Consider `N#Cc1c(Cl)c(Cl)c(Cl)c(C#N)c1Cl`, for which the LD50 is 242 mg/kg.
`CC1=C(C(=O)Nc2ccccc2)SCCO1` gave an LD50 of 430 mg/kg.
In turn, `CC(C)CC(=O)CC(C)C` came in with an LD50 of 5260 mg/kg.
With `CO[Si](OC)(c1ccccc1)c1ccccc1` the figure was 2610 mg/kg; with `CCCCCCC(=O)O`, 7000 mg/kg; with `CCOCCOCCO`, 5570 mg/kg.
Turning to `C=CC(C)C#N` (stereo unspecified), the LD50 was 232 mg/kg.
Compound `CCO[Si](CCC#N)(OCC)OCC` showed an LD50 of 5600 mg/kg.
The figure for `CC[C@H]1OC(=O)C[C@@H](O)[C@H](C)[C@@H](O[C@@H]2O[C@H](C)[C@@H](O)[C@H](N(C)C)[C@H]2O)[C@@H](CCN2C[C@H](C)C[C@H](C)C2)C[C@@H](C)C(=O)C=CC(C)=C[C@@H]1CO[C@@H]1O[C@H](C)[C@@H](O)[C@@H](OC)[C@H]1OC` is 800 mg/kg.
Consider `O=Cc1ccccc1`, for which the LD50 was 1300 mg/kg.
With `C[Si](C)(Cl)Cl` the figure was 595 mg/kg; with `CCNS(=O)(=O)C(F)(F)C(F)(F)C(F)(F)C(F)(F)C(F)(F)C(F)(F)C(F)(F)C(F)(F)F`, 507 mg/kg.
In turn, `OCCN1CN(CCO)CN(CCO)C1` showed an LD50 of 763 mg/kg. Compared with the last compound, the LD50 is about 1.5-fold higher.
`CCOP(=O)(N=C1SCC(C)S1)OCC` (stereo unspecified): the LD50 was 8.9 mg/kg.
With `OCCc1ccccc1` the figure was 1600 mg/kg; with `CCCCCCCCCCCCCCCCCCN`, 1000 mg/kg.
With `ClC1=C(Cl)[C@]2(Cl)[C@H]3[C@H]([C@@H]4C=C[C@H]3C4)[C@@]1(Cl)C2(Cl)Cl` (racemic) the figure was 39 mg/kg.
With `CCCCOC(=O)CCCCCCCCC(=O)OCCCC` the figure was 14900 mg/kg; with `CC(C)(C)OOC1(OOC(C)(C)C)CCCCC1`, 13300 mg/kg; with `C=CC(=O)NC(C)(C)CS(=O)(=O)O`, 1830 mg/kg.
Turning to `CCCC(=O)OC(C(Cl)(Cl)Cl)P(=O)(OC)OC` (stereo unspecified), the LD50 was found to be 760 mg/kg.
For `CC(C)CCCCCCCOP(OCCCCCCCC(C)C)OCCCCCCCC(C)C`, the LD50 came out at 12000 mg/kg. Against the preceding compound, the LD50 is about 16-fold higher.
As for `CC(=O)O[Si](C)(OC(C)=O)OC(C)=O`, the LD50 is 1550 mg/kg. This LD50 lies about 7.7-fold lower than the previous one.
With `CC1(C)CC(N)CC(C)(C)N1`, the LD50 turned out to be 906 mg/kg.
The figure for `CCOP(=S)(OCC)SCSP(=S)(OCC)OCC` is 13 mg/kg; for `CC(C)(N)Cc1ccccc1` it is 151 mg/kg; for `C#CCO` it is 20 mg/kg.
With `COP(=S)(OC)SCc1nc(N)nc(N)n1` the figure was 890 mg/kg.
Regarding `N#Cc1ccc(Cl)c(Cl)c1`, the LD50 amounted to 200 mg/kg.
With `CNCCO` the figure was 1390 mg/kg; with `CCC[N+](CCC)(CCC)CCC`, 3300 mg/kg.
In turn, `COCCOCCOCCO` had an LD50 of 11300 mg/kg.
With `COC(=O)OC(=O)OC` the figure was 260 mg/kg.
As for `O=C(O)c1ccccc1`, the LD50 was 1700 mg/kg.
For the compound `CCNc1nc(Cl)nc(NC(C)(C)C#N)n1`, the LD50 came to 149 mg/kg.
As for `CC(C)[C@H](C(=O)OC(C#N)c1cccc(Oc2ccccc2)c1)c1ccc(OC(F)F)cc1` (stereo partly specified), the LD50 worked out at 67 mg/kg. This LD50 lies about 2.2-fold lower than the previous one.
The figure for `Nc1c(Cl)c(F)nc(OCC(=O)O)c1Cl` is 2400 mg/kg; for `Cc1ccccc1C` it is 3520 mg/kg; for `CCCCN(CCCC)SN(C)C(=O)Oc1cccc2c1OC(C)(C)C2` it is 51 mg/kg.
Turning to `CC(C)COC(=O)CC(C(=O)OCC(C)C)S(=O)(=O)O` (stereo unspecified), the LD50 is 2770 mg/kg. This LD50 is about 54-fold higher than that of the compound before.
With `CN(C)C=O` the figure was 3000 mg/kg.
With `CCC(C)(CCC(C)C)C(=O)OOC(C)(C)C` (stereo unspecified) the figure was 8080 mg/kg; with `ClCC1CO1` (stereo unspecified), 65 mg/kg; with `COC(=O)CC(=O)CC(=O)OC`, 4480 mg/kg.
With `O=C1NC(=O)C(c2ccccc2)(c2ccccc2)N1` the figure was 250 mg/kg; with `O=[N+]([O-])c1ccc(O)c([N+](=O)[O-])c1`, 30 mg/kg; with `C/C(=N\C#N)N(C)Cc1ccc(Cl)nc1`, 146 mg/kg.
